1 compound from article PMC11062906 (Nature, 2024) can be followed below.

One test addresses BmGr9 P331A (Bombyx mori, UniProt B3GTD7, P331A). The test can be described thus: GCaMP calcium flux assay, BmGr9 P331A. The format is cell-based.
The target of another test is BmGr9 (Bombyx mori, UniProt B3GTD7). Put plainly: Intrinsic tryptophan fluorescence of detergent-solubilized purified BmGr9. The format is binding.
Another test deals with BmGr9 Y332F (Bombyx mori, UniProt B3GTD7, Y332F). The test can be described thus: GCaMP calcium flux assay, BmGr9 Y332F. It is filed as cell-based. For orientation: Calcium flux is commonly read through the fluorescence of an indicator in the cells.
For the next test, the system named is BmGr9 F333Y. The test can be described thus: GCaMP calcium flux assay, BmGr9 F333Y. It is filed as cell-based, Bombyx mori.
The test system of the next test is BmGr9 Y332L. The test can be described thus: GCaMP calcium flux assay, BmGr9 Y332L. It is filed as cell-based, Bombyx mori.
In the next test the target is BmGr9 Q445N (Bombyx mori, UniProt B3GTD7, Q445N). Put plainly: GCaMP calcium flux assay, BmGr9 Q445N. It is filed as cell-based.
The next test has as its system BmGr9 F189A. Put plainly: GCaMP calcium flux assay, BmGr9 F189A. The format is cell-based, Bombyx mori.
For the next test, the system named is BmGr9 D99N. Put plainly: GCaMP calcium flux assay, BmGr9 D99N. It is filed as cell-based, Bombyx mori.
The target in a further test is BmGr9 H358A (Bombyx mori, UniProt B3GTD7, H358A). Put plainly: GCaMP calcium flux assay, BmGr9 H358A. The format is cell-based.
The target in a further test is BmGr9 Y332A (Bombyx mori, UniProt B3GTD7, Y332A). The test can be described thus: GCaMP calcium flux assay, BmGr9 Y332A. The format is cell-based.
In the next test the target is BmGr9 Q351N (Bombyx mori, UniProt B3GTD7, Q351N). The test can be described thus: GCaMP calcium flux assay, BmGr9 Q351N. The format is cell-based.

“And” between values parts separate entries of the source, which are not always exact repeats. Identical values can stand only once.

Chain of BmGr9 (B3GTD7 entry or part of it): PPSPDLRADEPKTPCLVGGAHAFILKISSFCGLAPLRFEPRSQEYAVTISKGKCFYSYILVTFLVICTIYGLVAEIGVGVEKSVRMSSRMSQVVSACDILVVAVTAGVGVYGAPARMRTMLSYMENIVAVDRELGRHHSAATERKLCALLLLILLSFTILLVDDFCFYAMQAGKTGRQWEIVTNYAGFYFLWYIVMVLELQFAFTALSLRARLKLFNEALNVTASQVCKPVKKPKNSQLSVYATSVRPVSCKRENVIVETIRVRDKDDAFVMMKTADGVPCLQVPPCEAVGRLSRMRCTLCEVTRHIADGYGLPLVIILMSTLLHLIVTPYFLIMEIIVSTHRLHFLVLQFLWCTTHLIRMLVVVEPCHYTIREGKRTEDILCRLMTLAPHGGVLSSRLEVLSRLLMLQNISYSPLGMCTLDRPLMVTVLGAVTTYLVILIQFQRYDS
Chain of BmGr9 Y332F (B3GTD7 entry or part of it Y332F): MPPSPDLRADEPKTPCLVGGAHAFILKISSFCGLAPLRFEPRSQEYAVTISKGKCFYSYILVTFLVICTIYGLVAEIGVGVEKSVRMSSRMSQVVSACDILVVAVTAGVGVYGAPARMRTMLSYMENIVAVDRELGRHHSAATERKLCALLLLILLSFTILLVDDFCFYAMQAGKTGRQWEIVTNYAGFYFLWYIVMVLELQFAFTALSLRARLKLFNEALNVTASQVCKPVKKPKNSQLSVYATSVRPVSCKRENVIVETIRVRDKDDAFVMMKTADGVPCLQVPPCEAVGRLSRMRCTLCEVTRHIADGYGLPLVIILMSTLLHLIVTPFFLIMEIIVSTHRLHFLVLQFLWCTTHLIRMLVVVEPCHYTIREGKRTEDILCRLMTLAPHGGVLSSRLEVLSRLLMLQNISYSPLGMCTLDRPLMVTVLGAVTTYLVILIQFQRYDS
Chain of BmGr9 P331A (B3GTD7 entry or part of it P331A): as the sequence (B3GTD7 entry or part of it Y332F) above, with P331A, F332Y counted along it
Chain of BmGr9 Y332A (B3GTD7 entry or part of it Y332A): as the sequence (B3GTD7 entry or part of it Y332F) above, with F332A counted along it
Chain of BmGr9 Q351N (B3GTD7 entry or part of it Q351N): as the sequence (B3GTD7 entry or part of it Y332F) above, with F332Y, Q351N counted along it
Chain of BmGr9 Q445N (B3GTD7 entry or part of it Q445N): as the sequence (B3GTD7 entry or part of it Y332F) above, with F332Y, Q445N counted along it
Chain of BmGr9 H358A (B3GTD7 entry or part of it H358A): as the sequence (B3GTD7 entry or part of it Y332F) above, with F332Y, H358A counted along it

What is called EC50 is the midpoint of the concentration-response curve. Turning to `O=C(CO)[C@@H](O)[C@H](O)[C@H](O)CO` [D-fructose], the EC50 on BmGr9 P331A was 5.5 mM; on BmGr9 Y332F it was 2.6 mM; on BmGr9 Q445N it was 20.3 mM; on BmGr9 Y332A, 8.3 mM; at BmGr9 Q351N it was approximately 8 mM. Further, the “Hill Slope” value was 1.43 (0.87 to 2.39) on BmGr9 P331A (P331A, 95% CI in parentheses); approximately 2.36 at BmGr9 Y332F (Y332F); 1.49 (0.79 to 2.76) on BmGr9 Q445N (Q445N, 95% CI in parentheses); approximately 1.06 on BmGr9 H358A; 0.99 (0.37 to 2.17) at BmGr9 Y332A (Y332A, 95% CI in parentheses); approximately 0.71 at BmGr9 Q351N (Q351N). The Kd at BmGr9 (KD (apparent affinity, tryptophan fluorescence), purified BmGr9 in digitonin, n = 4, 95% CI in parentheses) is 16 mM and 15.8 mM. The “Trp fluorescence emission maximum” value on BmGr9 (saturating D-fructose, maximum near 330 nm without sugar) was found to be 324 nm. Further, the “apparent affinity relative to wild-type” value at BmGr9 Y332F (Tyr332 to Phe) was “slightly increases the apparent affinity”. The “activation by D-fructose (Fmax, Hill slope, EC50 fit)” value in the test with BmGr9 F333Y, with BmGr9 Y332L, in the test on BmGr9 F189A and with BmGr9 D99N was “no activity” in each case.
